Assay results: patent publication US20240131044A1, “METHOD FOR TREATING CANCER” (M.T.3, Inc., priority 2022, published 2024)

Legend:
[1] = tested on: soft tissue sarcoma developing cells (STSA-1); test: Colony formation, survival fraction of canine soft tissue sarcoma cells; assay type: cell-based
Procedure: (§1) An anti-cancer agent and a pharmaceutical composition were administered to test cells and then the cells were cultured. Then, after colonies were formed, the number of colonies was counted. Here, samples in which the concentration of the anti-cancer agent to be administered was varied were prepared, and in each sample, the survival fraction of the cells compared with the case where cells were cultured without administration of the pharmaceutical composition was measured. Regarding the type of anti-cancer agent to be administered, a predetermined anti-cancer agent was selected depending on the type of administration target cells. Note that cells that were cultured without administration of the pharmaceutical composition and the anti-cancer agent were used as a control. Hereinafter, these steps will be described.
(§2) Here, CHO cells, V79 cells, and canine-derived cancer cells were prepared as the test cells. The CHO cells are ovarian cells derived from Chinese hamsters, and the V79 cells are fibroblasts derived from the lungs of Chinese hamsters. Melanoma developing cells (CML6M) and soft tissue sarcoma developing cells (STSA-1) were used as the cancer cells.
(§3) The cancer cells were prepared by being cultured using an αMEM culture medium supplemented with 10% serum and an antibiotic. The cancer cells were prepared such that, when the concentration of the cells in a cell suspension obtained by subjecting the cultured cells to PBS washing and trypsin treatment, the concentration was within a predetermined concentration range. Here, the predetermined concentration ranges were 300 cells/well, 100 to 150 cells/well, and 500 to 1000 cells/well for the CHO/V79 cells, the melanoma cells, and the soft tissue sarcoma cells, respectively.
(§4) Next, the cancer cells were cultured in culture environments to which the anti-cancer agent was added at various concentrations, and were then allowed to form colonies. The culture periods for colony formation were a week, 10 days, and 14 days for CHO and V79, melanoma, and soft tissue sarcoma, respectively. After colonies were formed, washing using a physiological saline solution, fixation using 100% ethanol, and staining using 0.1% crystal violet were performed, and then the number of colonies per well was counted under a microscope. Note that, here, the colony was defined as containing 50 or more cells. Moreover, mitomycin C, doxorubicin, bleomycin, camptothecin, etoposide, taxol, methyl methanesulfonate, and cisplatin were used as the anti-cancer agent.
(§5) A graph with the horizontal axis representing the concentration of the anti-cancer agent and the vertical axis representing the survival fraction was created by plotting the survival fraction measurement results relative to the SQAP administration amounts, and the effect of the addition of SQAP on the survival fraction was examined. Hereinafter, the results from each anti-cancer agent will be shown in a table and described.
Canine-derived melanoma cells and soft tissue sarcoma cells were used as the cells, and doxorubicin was used as the anti-cancer agent. The amount of the doxorubicin administered to the melanoma cell was set to 0 nM, 5 nM, 10 nM, 15 nM, 20 nM, and 25 nM. […] In Table 2, survival fractions in the case where SQAP was not administered are shown with a solid line, survival fractions in the case where SQAP was administered at a concentration of 10 μM are shown with a broken line, survival fractions in the case where SQAP was administered at a concentration of 20 μM are shown with a 1-dot chain line, and survival fractions in the case where SQAP was administered at a concentration of 30 μM are shown with a 2-dot chain line.
(§6) In the above examples, the anti-cancer agent and the pharmaceutical composition were administered to the test cells and then the cells were cultured. […]

[2] = tested on: Melanoma developing cells (CML6M); test: Colony formation, survival fraction of canine melanoma cells; assay type: cell-based
Procedure: as §1, §2, §3, §4, §5
Canine-derived melanoma cells and soft tissue sarcoma cells were used as the cells, and doxorubicin was used as the anti-cancer agent. […] Also, the concentration of the doxorubicin administered to the soft tissue sarcoma cells was set to 0 nM, 5 nM, 10 nM, and 15 nM. […] In Table 2, survival fractions in the case where SQAP was not administered are shown with a solid line, survival fractions in the case where SQAP was administered at a concentration of 10 μM are shown with a broken line, survival fractions in the case where SQAP was administered at a concentration of 20 μM are shown with a 1-dot chain line, and survival fractions in the case where SQAP was administered at a concentration of 30 μM are shown with a 2-dot chain line.
as §6

[3] = tested on: CHO cells; test: Colony formation, survival fraction of CHO cells; assay type: cell-based, Chinese hamsters
Procedure: as §1, §2, §3
as §4, with “Moreover, mitomycin C, doxorubicin, bleomycin, camptothecin, etoposide, taxol, methyl methanesulfonate, and cisplatin were used as the anti-cancer agent.” left out
In the above examples, the anti-cancer agent and the pharmaceutical composition were administered to the test cells and then the cells were cultured. In this example, test cells were cultured after administering pharmaceutical composition (SQAP) alone without administering the anti-cancer agent to the test cells, and then the number of colonies was counted after colonies were formed. […]

CCCCCCCCCCCCCCCCCC(=O)OCCCO[C@H]1O[C@H](CS(=O)(=O)O)[C@@H](O)[C@H](O)[C@H]1O [SQAP, sulfoquinovosylacylpropanediol]
survival fraction ([1]; soft tissue sarcoma cells, doxorubicin 10 nM + SQAP 10 μM): about 2%
survival fraction ([1]; soft tissue sarcoma cells, doxorubicin 10 nM + SQAP 20 μM): about 2%
survival fraction ([1]; soft tissue sarcoma cells, doxorubicin 10 nM + SQAP 30 μM): about 0.7%
survival fraction ([1]; soft tissue sarcoma developing cells, SQAP 10 μM alone): about 90%
survival fraction ([1]; soft tissue sarcoma developing cells, SQAP 20 μM alone): about 75%
survival fraction ([1]; soft tissue sarcoma developing cells, SQAP 30 μM alone): about 45%
survival fraction ([1]; soft tissue sarcoma developing cells, doxorubicin 10 μM + SQAP 10 μM (as restated in Example 10)): about 2%
survival fraction ([1]; soft tissue sarcoma developing cells, doxorubicin 10 μM + SQAP 20 μM (as restated in Example 10)): about 2%
survival fraction ([1]; soft tissue sarcoma developing cells, doxorubicin 10 μM + SQAP 30 μM (as restated in Example 10)): about 0.7%
survival fraction ([2]; melanoma cells, doxorubicin 15 nM + SQAP 10 μM): about 10%
survival fraction ([2]; melanoma cells, doxorubicin 15 nM + SQAP 20 μM): about 3%
survival fraction ([2]; melanoma cells, doxorubicin 15 nM + SQAP 30 μM): about 0.4%
survival fraction ([2]; melanoma developing cells, SQAP 10 μM alone): about 90%
survival fraction ([2]; melanoma developing cells, SQAP 20 μM alone): about 85%
survival fraction ([2]; melanoma developing cells, SQAP 30 μM alone): about 60%
survival fraction ([2]; melanoma developing cells, doxorubicin 10 μM + SQAP 10 μM (as restated in Example 10)): about 10%
survival fraction ([2]; melanoma developing cells, doxorubicin 10 μM + SQAP 20 μM (as restated in Example 10)): about 3%
survival fraction ([2]; melanoma developing cells, doxorubicin 10 μM + SQAP 30 μM (as restated in Example 10)): about 0.4%
survival fraction ([3]; SQAP 30 μM alone): about 75%
survival fraction ([3]; mitomycin C 500 nM + SQAP 30 μM): about 1%
survival fraction ([3]; mitomycin C 500 μM + SQAP 30 μM (as restated in Example 10)): about 1%
